Where two headings read alike, the source gives them in different places.
Key:
Assay type in all cases: cell-based
MCF-7 = assay: MTT cell viability assay, MCF-7; conditions: Homo sapiens, read-out: IC50/μM MCF-7
Protocol: (§1) Cells were then treated with compound at various concentrations in 0.2 mL media. After the 72-hour incubation period, cells were washed in PBS (3×100 μL), and 10 μL MTT reagent was added with 100 μL fresh media. Cells were then incubated for 4 hr in a humidified chamber at 37° C. with 5% CO2. Insoluble formazan crystals were solubilized by addition of 0.1 mL detergent solution (4 hr at room temp., dark). Resulting colored solutions were then quantified at an absorbance of 570 nm.

MDA-MB-231 = assay: MTT cell viability assay, MDA-MB-231; conditions: Homo sapiens
Protocol: as §1

MEF (C57BL/6) = assay: MTT cell viability assay, MEF (C57BL/6); conditions: Mus musculus
Protocol: as §1

[1] = MTT, 72-hour incubation, read-out: IC50/μM MEF (C57BL/6)
[2] = MCF7, 72 h, MTT, 72-hour incubation
[3] = MDA-MB-231, 72 h, 72-hour incubation
[4] = 72 h, read-out: IC50/μM MEF (C57BL/6), MTT, 72-hour incubation

Structure (SMILES) | IC50 (MCF-7; MCF7, MTT, 72-hour incubation) [µM] | IC50 (MDA-MB-231; MDA-MB-231, 72-hour incubation) [µM] | IC50 (MEF (C57BL/6); [1]) [µM] | IC50 (MCF-7; [2]) [µM] | IC50 (MDA-MB-231; [3]) [µM] | IC50 (MEF (C57BL/6); [4]) [µM] | IC50 (MCF-7; MCF7, 72 h) [µM]
CCn1c(=O)/c(=C2\Sc3cc(Cl)ccc3N2C)s/c1=C\c1scc[n+]1Cc1ccccc1S(C)(=O)=O [JG-287] | 1.73 ± 0.2 | 1.3 ± 0.3 | > 10 | – | – | – | –
CCn1c(=O)/c(=C2\Sc3cc(Cl)ccc3N2C)s/c1=C\c1scc[n+]1Cc1cccc(Cl)c1 [JG-271] | – | – | – | 0.26 ± 0.02 | 0.51 ± 0.06 | 0.69 ± 0.03 | –
CCn1c(=O)/c(=C2\Sc3cc(F)ccc3N2C)s/c1=C\c1scc[n+]1Cc1ccccc1SC(F)(F)F [JG-254] | 0.65 ± 0.13 | 0.1 ± 0.01 | 1.5 ± 0.1 | – | – | – | –
CCn1c(=O)/c(=C2\Sc3cc(C)ccc3N2C)s/c1=C\c1scc[n+]1CCc1cccc(Cl)c1 [JG-382] | 0.59 ± 0.03 | 0.46 ± 0.06 | 1.2 ± 0.1 | – | – | – | –
CCn1c(=O)/c(=C2\Sc3cc(OC)ccc3N2C)s/c1=C\c1scc[n+]1Cc1ccsc1C(=O)OC [JG-305] | 0.12 ± 0.01 | 0.16 ± 0.01 | 1 ± 0.1 | – | – | – | –
CCn1c(=O)/c(=C2\Sc3ccc(OC)cc3N2C)s/c1=C\c1scc[n+]1Cc1ccccc1C(F)(F)F [JG-401] | 0.45 ± 0.04 | 0.11 ± 0.01 | 0.27 ± 0.03 | – | – | – | –
CCn1c(=O)/c(=C2\Sc3cc(C)ccc3N2C)s/c1=C\c1scc[n+]1Cc1ccccc1OC(F)(F)F [JG-270] | – | – | – | 0.064 ± 0.005 | 0.077 ± 0.009 | 0.75 ± 0.05 | –
CN1/C(=c2\s/c(=C\c3scc[n+]3Cc3ccccc3)n(C)c2=O)Sc2cc(F)cc(F)c21 [JG-282] | 0.29 ± 0.04 | 0.26 ± 0.03 | 2.5 ± 0.1 | – | – | – | –
C=CCn1c(=O)/c(=C2\Sc3cc(Cl)ccc3N2C)s/c1=C\c1scc[n+]1Cc1ccccc1 [JG-280] | – | 0.1 ± 0.01 | – | 0.17 ± 0.02 | – | 2.4 ± 0.1 | –
C=CCn1c(=O)/c(=C2\Sc3ccccc3N2C)s/c1=C\c1scc[n+]1Cc1ccccc1 [JG-276] | 0.24 ± 0.02 | 0.27 ± 0.03 | 2.5 ± 0.1 | – | – | – | –
CCn1c(=O)/c(=C2\Sc3cc(F)c(F)cc3N2C)s/c1=C\c1scc[n+]1Cc1ccccc1 [JG-251] | 2.5 ± 0.5 | 1.1 ± 0.1 | 0.91 ± 0.06 | – | – | – | –
CCn1c(=O)/c(=C2\Sc3cc(Cl)ccc3N2C)s/c1=C\c1scc[n+]1Cc1ccccc1OC [JG-263] | – | – | – | – | 0.12 ± 0.01 | 1.5 ± 0.1 | 0.4 ± 0.03
CCn1c(=O)/c(=C2\Sc3cc(Cl)ccc3N2C)s/c1=C\c1scc[n+]1CCc1ccccc1 [JG-269] | 0.18 ± 0.01 | 0.26 ± 0.04 | 2.2 ± 0.1 | – | – | – | –
CCn1c(=O)/c(=C2\Sc3cc(OC)ccc3N2C)s/c1=C\c1scc[n+]1CCc1ccc(C(F)(F)F)cc1 [JG-395] | 0.51 ± 0.06 | 0.42 ± 0.03 | 2.9 ± 0.1 | – | – | – | –
CCc1ccc2c(c1)S/C(=c1/s/c(=C\c3scc[n+]3Cc3ccsc3C(=O)OC)n(CC)c1=O)N2C [JG-299] | 0.083 ± 0.007 | 0.071 ± 0.009 | 0.92 ± 0.04 | – | – | – | –
CCn1c(=O)/c(=C2\Sc3ccc(OC)cc3N2C)s/c1=C\c1scc[n+]1Cc1ccsc1C(=O)OC [JG-402] | 0.45 ± 0.04 | 0.23 ± 0.01 | 0.82 ± 0.06 | – | – | – | –
CCn1c(=O)/c(=C2\Sc3ccc(C)cc3N2C)s/c1=C\c1scc[n+]1Cc1occc1C(=O)OC [JG-370] | 0.22 ± 0.01 | 0.18 ± 0.02 | 1.2 ± 0.1 | – | – | – | –
CCn1c(=O)/c(=C2\Sc3cc(C(C)C)ccc3N2C)s/c1=C\c1scc[n+]1Cc1ccc(C(F)(F)F)o1 [JG-328] | 0.14 ± 0.02 | 0.23 ± 0.02 | 0.7 ± 0.03 | – | – | – | –
CCn1c(=O)/c(=C2\Sc3ccc(OC)cc3N2C)s/c1=C\c1scc[n+]1Cc1ccccc1OC [JG-404] | 0.79 ± 0.1 | 0.3 ± 0.03 | 1.3 ± 0.1 | – | – | – | –
CCn1c(=O)/c(=C2\Sc3cc(C)ccc3N2C)s/c1=C\c1scc[n+]1CCc1ccc(C(F)(F)F)cc1 [JG-388] | 0.5 ± 0.04 | 0.62 ± 0.07 | 1.6 ± 0.1 | – | – | – | –
CCn1c(=O)/c(=C2\Sc3cc(OC)ccc3N2C)s/c1=C\c1scc[n+]1Cc1ccccc1C(=O)OC [JG-351] | 0.14 ± 0.01 | 0.11 ± 0.01 | 1.6 ± 0.1 | – | – | – | –
CCn1c(=O)/c(=C2\Sc3cc(C#N)ccc3N2C)s/c1=C\c1scc[n+]1Cc1ccccc1 [JG-360] | 1.3 ± 0.1 | 2.3 ± 0.1 | 2.3 ± 0.1 | – | – | – | –
CCc1ccc2c(c1)S/C(=c1/s/c(=C\c3scc[n+]3Cc3cc(C)sc3C)n(CC)c1=O)N2C [JG-347] | 0.095 ± 0.008 | 0.21 ± 0.01 | 0.6 ± 0.01 | – | – | – | –
CCn1c(=O)/c(=C2\SCCN2C)s/c1=C\c1scc[n+]1Cc1ccccc1 [JG-258] | > 5 | > 20 | > 10 | – | – | – | –
CCn1c(=O)/c(=C2\Sc3cc(C)ccc3N2C)s/c1=C\c1scc[n+]1Cc1ccsc1 [JG-279] | 0.14 ± 0.03 | 0.15 ± 0.01 | 2.2 ± 0.1 | – | – | – | –
CCn1c(=O)/c(=C2\Sc3cc(Cl)ccc3N2C)s/c1=C\c1scc[n+]1CCc1ccc(Cl)cc1 [JG-385] | 0.69 ± 0.05 | 0.61 ± 0.05 | 4.4 ± 0.3 | – | – | – | –

From patent publication US10221171B2, “Oxathiazole thiazolium Hsp 70 inhibitors” (THE REGENTS OF THE UNIVERSITY OF CALIFORNIA, priority 2015, dated 2019)
